In PubChem BioAssay (NCI):
“And” between values parts separate entries of the source, which are not always exact repeats. Equal entries are not always repeated.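 48-hour exposure; five concentrations; linearly interpolated endpoints. GI50 is the concentration that inhibits growth by half. TGI denotes the concentration required for complete inhibition of growth.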

Assays:
Test in all cases: NCI-60 cell line screen, 48 h
SK-MEL-2 melanoma = test system: SK-MEL-2 melanoma
HT29 colon = test system: HT29 colon
UACC-62 melanoma = test system: UACC-62 melanoma
K-562 leukemia = test system: K-562 leukemia
MDA-MB-435 = test system: MDA-MB-435
SF-539 CNS = test system: SF-539 CNS
OVCAR-3 ovarian = test system: OVCAR-3 ovarian
HOP-62 NSCLC = test system: HOP-62 NSCLC
A549 NSCLC = test system: A549 NSCLC
SF-295 CNS = test system: SF-295 CNS

Structure (SMILES) | GI50 (SK-MEL-2 melanoma) | TGI (SK-MEL-2 melanoma) | GI50 (HT29 colon) | TGI (HT29 colon) | GI50 (UACC-62 melanoma) [µM] | TGI (UACC-62 melanoma) | GI50 (K-562 leukemia) | TGI (K-562 leukemia) | GI50 (MDA-MB-435) | TGI (MDA-MB-435) | GI50 (SF-539 CNS) | TGI (SF-539 CNS) | GI50 (OVCAR-3 ovarian) | TGI (OVCAR-3 ovarian) | GI50 (HOP-62 NSCLC) | TGI (HOP-62 NSCLC) | GI50 (A549 NSCLC) | TGI (A549 NSCLC) | GI50 (SF-295 CNS) | TGI (SF-295 CNS)
COc1ccc(/C(C)=C(\c2ccc(OCCN3CCCCCC3)cc2)c2ccc(OC(=O)C3CCCCC3)cc2)cc1 | 1.87 µM | 4.19 µM | 0.46 µM | 2.14 µM | 0.892 | 2.85 µM | 0.356 µM | 6.14 µM | 1.57 µM | 3.38 µM | 0.833 µM | 2.74 µM | 1.16 µM | 3.13 µM | 1.89 µM | 4.21 µM | 1.12 µM | 4.04 µM | 0.484 µM | 1.8 µM
OC(c1cc(-c2ccc(C(F)(F)F)cc2)nc(C(F)(F)F)c1)C1CCCCN1 (configuration not stated) | – | 3.42 µM and 3.49 µM | 1.65 µM | 3.22 µM and 3.87 µM | – | 3.02 µM and 3.51 µM | 1.2 µM and 1.91 µM | 2.94 µM and 4.06 µM | 1.67 µM | 3.05 µM and 3.42 µM | 1.72 µM and 2.39 µM | 3.12 µM and 4.75 µM | 1.85 µM and 2.69 µM | 3.28 µM and 6.76 µM | 1.75 µM and 2.13 µM | 3.18 µM and 4.75 µM | 1.84 µM and 2.05 µM | 3.4 µM and 4.92 µM | 1.38 µM and 2.84 µM | 2.7 µM and 6.54 µM
CO[C@H]1Nc2c(ccc(C)c2O)C(=O)N2C=C(/C=C/C(N)=O)C[C@@H]12 | – | 0.0223 µM | – | 1.51 µM | – | 0.036 µM | – | 27.8 µM | – | 0.0293 µM | – | 0.0384 µM | – | 0.192 µM | – | 0.0386 µM | – | > 72.3 µM | – | 1.75 µM
O=C1CCCN1c1ccccc1I(=O)=O | > 100 µM | > 100 µM | > 100 µM | > 100 µM | > 100 | > 100 µM | > 100 µM | > 100 µM | > 100 µM | > 100 µM | > 100 µM | > 100 µM | > 100 µM | > 100 µM | – | – | > 100 µM | > 100 µM | > 100 µM | > 100 µM
CC(C)c1[nH]nc2c1N=C(c1ccccc1Cl)c1cc([N+](=O)[O-])ccc1N2 | 5.49 µM | 13.4 µM | 8.72 µM | > 22.2 µM | 4.18 | > 23.5 µM | 1.98 µM | > 25 µM | 0.87 µM | > 25 µM | 7.27 µM | > 22 µM | 4.68 µM | 13.1 µM | 6.58 µM | > 25 µM | 5.18 µM | > 22.3 µM | 8.52 µM | > 25 µM
CC(C)(C)[Si](C)(C)OC1[C@@H](CNC(=O)NC(=O)CCl)O[C@@H](n2cnc3c(N)ncnc32)[C@H]1O[Si](C)(C)C(C)(C)C (some centres not stated) | 1.04 µM | 2.01 µM | 0.585 µM | 1.43 µM | 0.877 | 1.74 µM | 1.23 µM | 3.41 µM | 0.798 µM | 1.56 µM | 0.944 µM | 1.67 µM | 1.02 µM | 1.94 µM | 0.842 µM | 1.69 µM | 2.1 µM | 7.72 µM | – | –
Cc1cc(Nc2nc(-c3cn(-c4ccc(Cl)cc4)nn3)nc3ccccc23)n[nH]1 | 8.23 µM | 29.8 µM | 23.5 µM | > 50 µM | – | – | 25.8 µM | > 50 µM | 11.6 µM | > 50 µM | 27.3 µM | > 50 µM | 10.5 µM | 23.4 µM | 14 µM | > 50 µM | 11.4 µM | > 50 µM | 7.6 µM | 38.5 µM
CN(C)C(=S)SSC(=S)N(C)C | 34.2 µM and 57 µM and 17 µM | > 100 µM and 39.4 µM | 0.112 µM and 0.29 µM | > 54.9 µM and 30.7 µM | 15.8 | 32.8 µM and > 41.6 µM and 28.2 µM | – | > 100 µM and 16.5 µM | 15.6 µM and 8.04 µM and 21.1 µM | 38.6 µM and 33.5 µM and > 56.7 µM | 16.3 µM and 40.8 µM and 10.7 µM | 31.9 µM and > 100 µM and > 45.8 µM | – | – | 18 µM | 34.8 µM and > 100 µM | 17.2 µM and 3.51 µM and 19.7 µM | 45.9 µM and > 100 µM and 48.1 µM | – | 81.9 µM and > 100 µM and 57.1 µM
ClCCN(CCCl)c1ccc(CNc2ccccc2)cc1 | 20.9 µM | 51 µM | 20.4 µM | > 100 µM | – | – | 8.66 µM | > 100 µM | 12 µM | > 100 µM | 3.21 µM | 24.2 µM | 15.2 µM | > 100 µM | 6.32 µM | > 100 µM | 4.36 µM | > 100 µM | 3.16 µM | > 100 µM
N#CCCN1C/C(=C/c2ccc(Br)cc2)C(=O)/C(=C/c2ccc(Br)cc2)C1 | 2.6 µM | 6.54 µM | 0.338 µM | 1.24 µM | 1.93 | 4.52 µM | 0.454 µM | > 100 µM | 2.24 µM | 6.83 µM | 1.61 µM | 2.99 µM | – | – | 1.66 µM | 3.57 µM | 2.38 µM | 26.3 µM | – | –
